These results are taken from PMC8583849 (International Journal of Molecular Sciences, 2021).

The subject of test [1] is Cathepsin-L. Details: method as in https://www.apexbt.com/e-64.html. To be noted: ref https://www.apexbt.com/e-64.html; read-out: IC50, Cathepsin-L inhibition, literature value; cited from earlier work.
Test [2] addresses T1, Cathepsin-L (Homo sapiens, UniProt P07711).
T1 construct: purchased BPS Bioscience 79591
As to the kind of experiment: Cathepsin-L Inhibitor Screening Kit (Fluorometric). To be noted: for pIC50: Cathepsin-L 0.01 ng/μL, substrate 5 μM, 30 min incubation at RT; for HillSlope, Cathepsin-L inhibition / LogIC50, Cathepsin-L inhibition / IC50: fit values given in Figure 6. The class given is biochemical. The procedure: The effect of MG-132 on Cathepsin-L activity was measured using the Cathepsin-L Inhibitor Screening Kit (Fluorometric) (BPS Bioscience #79591, San Diego, CA, USA). The assay is based on the Cathepsin-L mediated cleavage of a synthetic fluorogenic substrate. Generated AFC is measured on a fluorescence microplate reader. The assay was performed according to the manufacturer protocol but adapted to 384-well format with a final volume of 10 μL. Briefly, compounds (stock in 100% v/v DMSO) are transferred in black 384-well microplates by acoustic dispensing (Echo, Labcyte, Beckman Coulter); 5 µL of diluted Cathepsin-L is added and incubated for 30 min at RT. The enzymatic reaction is initiated by the addition of 5 µL of the substrate. The fluorescence signal is detected in a kinetic mode for 15 min at 37 °C using Ex/Em = […] (Envision, PerkinElmer). Final assay concentrations were: Cathepsin-L 0.01 ng/μL, substrate 5 μM. E-64 provided in the kit was used as a positive control for Cathepsin-L inhibition and assay validation. DMSO was used as compound solvent control (0% inhibition).

For test [3], the system named is SARS-CoV-2 strain BetaCov/Belgium/GHB-03021/2020. Details: method as in PMID 35287429. Conditions: Vero-E6 cells infected by SARS-CoV-2; read-out: EC50, reduction of viral RNA (qPCR); cited from earlier work.
The subject of test [4] is SARS-CoV-2 main protease (Mpro). Details: method as in PMID 35287429. Conditions: read-out: IC50 in the Mpro enzymatic assay, cited from earlier work.
For the next test, the system named is SARS-CoV-2 in Calu-3. Details: method as in PMID 33811811. Conditions: Calu-3 cells; cited from earlier work.
For a further test, the system named is SARS-CoV-2 in Huh-7. Also noted: method as in PMID 33811811. To be noted: Huh-7 cells; cited from earlier work.
In test [5] the test system is T2, SARS-CoV-2 protease PLpro.
T2 construct: the papain-like protease (PLpro; nsp3)
Kind of test: Activity towards PLpro. It counts as biochemical. To be noted: paper in preparation. An excerpt: Knowing the role of MG-132 in inhibition of the proteasome and representatives of Cathepsin and Calpain proteases, we investigated its role in the inhibition of Cathepsin-L, one of the key enzymes needed for the entry of SARS-CoV-2. Previously, we reported the anti-cytopathic activity of MG-132 in SARS-CoV-2 infected Vero-E cells [see CHEMBL Entry https://www.ebi.ac.uk/chembl/document_report_card/CHEMBL4495565/, accessed on 28 October 2021]. The results were confirmed by different groups reporting antiviral activity also in other cell lines like Huh-7 and Calu-3 all with sub-micromolar EC50 [39]. If we compare the antiviral activity in cells to the high IC50 measured against Mpro it is reasonable to assume that the effect on Mpro is probably too low to justify submicromolar cell activity, and thus it is supported by inhibition of host proteases. We have measured no activity towards the second SARS-CoV-2 protease PLpro (paper in preparation).

The next test relates to Mpro. Kind of test: Thermostability assay (TSA). The class given is binding, SARS-CoV-2. To be noted: 1 μM protein, normalized with DMSO. The procedure: A reaction mixture containing the protein at 1 μM final concentration and increasing molar excesses of MG-132 (1×, 3×, 10×, 20×, and 50×) was tested. In each well: 20 μL of buffer 5×, 2 μL of protein stock, the volume of MG-132 stock needed for the fixed molar excess, and Milli-Q H2O to reach 99 μL was added. The protein was left in incubation with the compound for 30 min at room temperature. The plate was put on ice, and 1 μL of 500 × SYPRO orange (Thermo Fischer Scientific) was added in each well. The plate was sealed and centrifuged at 200× g and 4 °C for 1 min. The melting curves were measured in a RT-PCR (Eppendorf, Milan, Italy). After a stationary phase of 2 min at 25 °C, the temperature was increased by 0.5 °C every 30 s until the maximum of 95 °C was reached. Fluorescence has been measured at each step. Each condition has been reproduced in tripled. The Tm control with the protein and the equivalent volume of DMSO only was assessed as well.

Test [6] relates to rat liver isolated Cathepsin-L. Details: method as in PMID 18830882. Conditions: cited from earlier work.

Each structure is given as a SMILES string. pEC50, pIC50: −log10 of the molar value. Read-outs that look alike come from different tables or passages of the source. Peptide text beside a SMILES is read from it. * marks the point of attachment. Cbz = O=C(OCc1ccccc1)*

T1 sequence (P07711 114-333): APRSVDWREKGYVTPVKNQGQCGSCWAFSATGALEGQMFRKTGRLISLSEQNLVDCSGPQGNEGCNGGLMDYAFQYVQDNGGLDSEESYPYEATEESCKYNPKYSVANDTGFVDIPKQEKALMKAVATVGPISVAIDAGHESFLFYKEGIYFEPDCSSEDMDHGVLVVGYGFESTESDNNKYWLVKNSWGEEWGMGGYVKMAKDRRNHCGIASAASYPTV

For `CC(C)C[C@H](NC(=O)[C@H]1O[C@@H]1C(=O)O)C(=O)NCCCCN=C(N)N` [E64], the pIC50 in the test with Cathepsin-L [1] was 8.60. The negative-log IC50 (pIC50) at Cathepsin-L [2] (read-out: IC50, Cathepsin-L inhibition) was 8.57. Also, at Cathepsin-L [2], the “HillSlope, Cathepsin-L inhibition” value is given as -2.040 and the “LogIC50, Cathepsin-L inhibition” value is -8.560. In addition, the IC50 at Cathepsin-L [2] (read-out: IC50 (M), Cathepsin-L inhibition) was determined as 2.75e-09 M.
As to `CC(C)C[C@@H](C=O)NC(=O)[C@H](CC(C)C)NC(=O)[C@H](CC(C)C)NC(=O)OCc1ccccc1` [MG-132] (Cbz-Leu-Leu-Leu-aldehyde), the negative logarithm of the EC50 (pEC50) in [3] was 7.00; in test [6], 6.79. The pIC50 in [4] was 5.13; in test [4] (with 1 mM DTT), 5.33; on Cathepsin-L [2] (IC50, Cathepsin-L inhibition) it was 9.82. The “EC50, antiviral activity” value in the test on SARS-CoV-2 in Calu-3 and in the test with SARS-CoV-2 in Huh-7 was “sub-micromolar” each time. Further, the “activity towards PLpro” value in test [5] is given as “no activity”. The ΔTm in the test on Mpro (50 molar excess of inhibitor) is 3.5 °C; in the test on Mpro (one molar excess of inhibitor) it was 0.5 °C. In addition, the half-inhibitory concentration (IC50) against Cathepsin-L [2] (IC50 (M), Cathepsin-L inhibition) was 1.55e-10 M. In addition, the “HillSlope, Cathepsin-L inhibition” value at Cathepsin-L [2] is listed as -1.826. In addition, the “LogIC50, Cathepsin-L inhibition” value on Cathepsin-L [2] is reported as -9.811.
